Data on three compounds can be found in ChEMBL document CHEMBL2040846, “A new 9,11-secosterol from the soft coral Sinularia granosa” (Bioorg Med Chem Lett, 2012).

In one series the test system is HeLa. The series is described as follows: Antiproliferative activity against human HeLa cells after 6 days by MTT assay. As to conditions: 144 h, read-out: ED50 (the source's name). Format: functional. Background: Tetrazolium assays rely on reduction of a dye to a coloured formazan, in cell work by metabolically active cells.
The subject of another series is HEp-2. Briefly: Antiproliferative activity against human Hep2 cells after 6 days by MTT assay. Format: functional. The settings on record: HEp-2, 144 h, read-out: ED50 (the source's name).
A further series concerns Daoy. Briefly: Antiproliferative activity against human DaOY cells after 6 days by MTT assay. As to conditions: 144 h, read-out: ED50 (the source's name). In kind it is functional.
In another series the test system is MCF7. Briefly: Antiproliferative activity against human MCF7 cells after 6 days by MTT assay. In kind it is functional. As to conditions: MCF7, 144 h, read-out: ED50 (the source's name).
In series [1] the test system is RAW264.7. Briefly: Antiinflammatory activity in mouse RAW264.7 cells assessed as inhibition of LPS-induced iNOS expression at 10 uM incubated for 10 mins prior to LPS-challenge measured after 16 hrs by Western blot analysis relative to control. Format: functional. A general note: In western blotting, separated proteins are transferred to a membrane and probed.
Series [2] relates to RAW264.7. The series is described as follows: Antiinflammatory activity in mouse RAW264.7 cells assessed as inhibition of LPS-induced COX2 expression at 10 uM incubated for 10 mins prior to LPS-challenge measured after 16 hrs by Western blot analysis relative to control. Format: functional.
Series [3] has as its system RAW264.7. Briefly: Effect on beta-actin protein expression in LPS-induced mouse RAW264.7 cells at 10 uM incubated for 10 mins prior to LPS-challenge measured after 16 hrs by Western blot analysis relative to control. In kind it is ADME, cell-based. The settings on record: raw264.7, 16 h.
Series [4] relates to RAW264.7. Briefly: Toxicity against mouse RAW264.7 cells. In kind it is cell-based.

Molecules are shown by their SMILES. Converted amounts (≈) assume the structure as drawn.

For `C=C(CC[C@@H](C)[C@H]1CC[C@@H]([C@H]2C[C@@H]3O[C@@]34C[C@@H](O)CC[C@]4(C)C2=O)[C@]1(C)CCO)C(C)C`, the EC50 worked out at 8.21 µg/mL (≈ 18.4 µM) in the series on HeLa, 6.21 µg/mL (≈ 13.9 µM) with HEp-2, 5.53 µg/mL (≈ 12.4 µM) in the series on Daoy and 4.99 µg/mL (≈ 11.2 µM) in the series on MCF7. Besides, the values for the inhibition at 10 µM in the series on RAW264.7 [1] and in the series with RAW264.7 [2] were 66.1% and 42.7%, respectively. Moreover, the Activity in the series with RAW264.7 [3] is 102.3%; in the series with RAW264.7 [4], “Non-toxic”.

Turning to `C=C(CC[C@@H](C)[C@H]1CC[C@@H]([C@@H]2C[C@H]3O[C@]34C[C@@H](O)CC[C@]4(C)C2=O)[C@]1(C)CCO)C(C)C`, the EC50 in the series on HeLa was greater than 40 µg/mL; in the series with HEp-2, greater than 40 µg/mL; with Daoy it was 7.07 µg/mL (≈ 15.8 µM); in the series on MCF7, 9.98 µg/mL (≈ 22.3 µM). In the series on RAW264.7 [1], the inhibition (commonly the percentage by which the read-out fell short of the control) at 10 µM turned out to be 19.4%. The Activity with RAW264.7 [3] is on record as 108.9%; in the series with RAW264.7 [4] it was “Non-toxic”.

`CO[C@@]12[C@H](COC(N)=O)C3=C(C(=O)C(C)=C(N)C3=O)N1C[C@@H]1N[C@@H]12` [MITOMYCIN]: the EC50 in the series with HeLa turned out to be 0.13 µg/mL (≈ 0.389 µM); in the series with HEp-2, 0.12 µg/mL (≈ 0.359 µM); in the series with Daoy it was 0.08 µg/mL (≈ 0.239 µM); with MCF7, 0.09 µg/mL (≈ 0.269 µM).
